# Earlier results in PMC9285603, “Flavan‐3‐ol Microbial Metabolites Modulate Proteolysis in Neuronal Cells Reducing Amyloid‐beta (1‐42) Levels” (Molecular Nutrition & Food Research, 2021).
# How the values were obtained:
# [1] = test system: human neuroblastoma SH‐SY5Y cells; parameters: method as in PMID 28891114; settings: cited from earlier work
# [2] = parameters: method as in PMID 28891114; settings: compared with parental compound EGCG; cited from earlier work
# brown adipocytes = test system: brown adipocytes; parameters: method as in PMID 28276197; settings: cited from earlier work
Compound,neurites outgrowth and elongation [1],BBB permeability [2],protection from increased production of reactive oxygen species (brown adipocytes)
"O=C1CCC(Cc2cc(O)cc(O)c2)O1 (stereo not drawn) [5‐(3ʹ,5ʹ‐dihydroxyphenyl)‐γ‐valerolactone]",significantly induced,slightly higher,–
"O=C1CC[C@H](Cc2ccc(O)c(O)c2)O1 [(R)‐5‐(3ʹ,4ʹ‐dihydroxyphenyl)‐γ‐valerolactone]",–,–,protect brown adipocytes
